Laboratory results taken from patent US7226936B2, “Pyridinic sulfonamide derivatives method of production and use thereof” (University De Liege, priority 2001, dated 2007).

Key:
[1] = target: T1, COX-2 (Homo sapiens, UniProt P35354); assay: whole blood assay, COX-2 inhibition; assay type: cell-based
T1 construct: endogenous in cells; host or cells: whole blood (blood cells)
T1 sequence (P35354 18-604): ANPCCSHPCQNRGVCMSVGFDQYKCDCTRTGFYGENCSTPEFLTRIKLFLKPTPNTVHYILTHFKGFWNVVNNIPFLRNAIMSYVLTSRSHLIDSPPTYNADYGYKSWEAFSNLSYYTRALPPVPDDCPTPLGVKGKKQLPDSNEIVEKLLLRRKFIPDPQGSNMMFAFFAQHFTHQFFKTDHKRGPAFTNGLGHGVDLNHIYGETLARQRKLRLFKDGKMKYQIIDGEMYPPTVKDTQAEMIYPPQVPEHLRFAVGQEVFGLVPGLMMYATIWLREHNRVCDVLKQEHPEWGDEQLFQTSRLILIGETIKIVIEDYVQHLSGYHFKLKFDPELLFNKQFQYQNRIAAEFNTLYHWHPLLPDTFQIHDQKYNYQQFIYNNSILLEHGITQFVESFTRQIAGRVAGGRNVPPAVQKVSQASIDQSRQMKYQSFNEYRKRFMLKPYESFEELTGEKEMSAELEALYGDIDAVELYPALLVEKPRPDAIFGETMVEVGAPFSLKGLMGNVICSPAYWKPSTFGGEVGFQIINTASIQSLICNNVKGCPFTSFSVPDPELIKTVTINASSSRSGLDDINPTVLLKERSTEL

[2] = test system: rat paw oedema; assay: Carrageenin-induced rat paw oedema model; assay type: in vivo, Wistar rats; settings: for percentage of growth of the paw after injection of carrageneen: 1 h before carrageenin, paw weighed 3 h after, mean±standard deviation, n=6, control 96 ± 8.7
Experimental: The activity of the derivatives has also been evaluated by using a rat paw oedema pharmacological model.
In Carrageenin-induced rat paw oedema model, Wistar rats were used. The mean weight of the animals was 250 g. The animals were treated with an intraperitoneal injection of the drug at the appropriate concentration (solution at the concentration of 10 mg/mL in DMSO). Lambda carrageenin (0.1 mL; 1%) was injected one hour later in the plantar region of the right hand paw. Three hours thereafter, the rats were euthanasied by injection of nembutal (100 mg/kg) and the paws were cutted at the ankle. The swelling was calculated as a percentage increase in the weight of the control paw.
Results are expressed as percentage of growth of the paw after injection of carrageneen (mean±standard deviation, n=6).

activity as COX-2 inhibitor (in words) ([1]; conclusion from Table 1): active as COX-2 inhibitor | IC50 ([1]; estimated IC50, whole blood assay): 400 nM
SMILES: O=S(=O)(Nc1ccncc1Oc1ccccc1)C(F)(F)F [Compound 1, N-(3-phenoxy-4-pyridinyl)trifluoromethane-sulfonamide]
percentage of growth of the paw after injection of carrageneen ([2]; 5 mg/kg intraperitoneal): 101.0 ± 8.1 percentage | percentage of growth of the paw after injection of carrageneen ([2]; 10 mg/kg intraperitoneal): 74.7 ± 7.2 percentage | percentage of growth of the paw after injection of carrageneen ([2]; 30 mg/kg intraperitoneal): 54.1 ± 17.5 percentage | anti-inflammatory effect in vivo (in words) ([2]; conclusion from Table 2): presents an anti-inflammatory effect in vivo
